Legend:
[1] = Plasma insulin in cafeteria-diet obese female Wistar rats; format: in vivo, rat; settings: fed, 10 mg/kg po once daily each, after 28/29 days
Experimental: (§1) An animal model of obesity was used to study the effect of Cpd. A, Pioglitazone or the combination of Cpd. A with Pioglitazone on body weight and total body fat content. For this, female Wistar rats were made obese by exposure to a simplified cafeteria diet containing high fat chow, chocolate and ground peanuts for approximately 19 weeks. Following the induction of obesity, rats were given vehicle (0.5% aqueous hydroxyethylcellulose) for 7 days and were then dosed orally once-daily with either vehicle, 10 mg/kg Cpd. A, 10 mg/kg Pioglitazone, or the combination of Cpd. A and Pioglitazone for 29 days. For the duration of the study rats were maintained on cafeteria diet.
After 28 days of treatment, blood samples were collected from the tail vein (from fed animals) for analysis of insulin. Plasma insulin values were determined by using a Millipore Luminex RENDO 85K kit.
In FIG. 2, results are mean plasma insulin levels±SEM after 29 days of once-daily oral treatment with the glucopyranosyl-substituted benzene derivative (Cpd. A), Pioglitazone or the combination of both Cpd. A and Pioglitazone at the indicated doses. Plasma insulin values were analyzed by unpaired t-test. P values versus vehicle control are indicated by symbols above the bars (*, p<0.05; **, p<0.01; ***, p<0.001). […] Combination of Cpd.

[2] = Body composition (FoodScan NIR) in cafeteria-diet obese female Wistar rats; format: in vivo, rat; settings: 10 mg/kg po once daily, carcass analysis at Day 31
Experimental: as §1
At the end of the study on Day 31 (24 hours after the last treatment on Day 30) all rats were terminated, the body exsanguinated and the following tissues removed: the caudate liver lobe, the pancreas, the kidneys. Body composition (body fat, protein and water) was determined using the FoodScan NIR (near infra-red) meat analyser (Foss UK). This machine has AOAC (Association of Official Analytical Chemists) approval as reference method for the analysis of moisture, fat and protein in meat. The carcasses were milled under liquid nitrogen and a portion of the milled carcass was analysed in the FoodScan Analyser.
Results are the percentage reduction in each parameter when compared to control and presented along with the corresponding percentage reduction in carcass weight compared to the vehicle-treated control group. Body composition (body fat, protein and water) was determined using the FoodScan NIR (near infra-red) meat analyser (Foss UK).

[3] = Body weight in cafeteria-diet obese female Wistar rats; format: in vivo, rat; settings: obese female Wistar rats on cafeteria diet, 28 day treatment
Experimental: as §1
In FIG. 1, results are mean body weights (adjusted for differences between the body weights of the different treatment groups at baseline (Day 1))±SEM (calculated from the residuals of the statistical model), n=10) after 28 day once-daily oral treatment with the glucopyranosyl-substituted benzene derivative (Cpd. A), Pioglitazone or the combination of both Cpd. A and Pioglitazone at the indicated doses.
Body weight data were analyzed by unpaired t-test. […] Combination of Cpd.

[4] = tested on: Zucker diabetic fatty rats (ZDF/Crl-Lepr^fa); assay: Blood glucose time course in male Zucker diabetic fatty rats; format: in vivo, rat; settings: freely fed, 2 h after dosing, two weeks once daily po, Cpd. A 1 mg/kg, pioglitazone 10 mg/kg
Excerpt: The SGLT2 inhibitor is the glucopyranosyl-substituted benzene derivative described as compound (I.9) hereinabove and referred to as “Cpd. A” in the following. The PPARγ agonist is pioglitazone. All experimental protocols concerning the use of laboratory animals were reviewed by a federal Ethics Committee and approved by governmental authorities. The time course of blood glucose was followed over a treatment period of 2 weeks in male Zucker diabetic fatty rats (ZDF/Crl-Lepr^fa) with an age of 10 weeks at the start of the study. A pre-dose blood sample was obtained by tail bleed (day 0) and blood glucose was measured with a glucometer. From day 1 to day 15, the animals (n=5/group) received once daily oral administrations of either vehicle alone (0.5% aqueous hydroxyethylcellulose) or this vehicle containing either Cpd. A or pioglitazone or the combination of the Cpd. A with pioglitazone. Blood glucose was measured in tail blood 2 h after dosing in freely fed animals. The data are presented as mean±S.E.M. Statistical comparison was conducted by repeated measures two-way ANOVA followed by Bonferroni post tests for group-wise comparisons. A p value <0.05 was considered to show a statistically significant difference.
Cpd. A is Cpd. A described as compound (I.9) hereinabove at a dose of 1 mg/kg. Pioglitazone was dosed at 10 mg/kg. Combination Cpd. […]

[5] = metformin on its own, in the diabetic; cited from earlier work

Row | SMILES | plasma insulin levels versus vehicle control [1] | Carcass weight (%), percentage reduction compared to vehicle-treated control [2] [%] | Fat (%), percentage reduction compared to control [2] [%] | Protein (%), percentage reduction compared to control [2] [%] | Water (%), percentage reduction compared to control [2] [%] | reduction of body weight compared to vehicle-treated control ([3]; 10 mg/kg po once daily) [%] | reduction of blood glucose [4] [%] | increase of body weight compared to vehicle-treated control animals ([3]; 10 mg/kg po once daily each) [%] | average improvement in the HbA1c value [5]
1 | OC[C@H]1O[C@@H](c2ccc(Cl)c(Cc3ccc(O[C@H]4CCOC4)cc3)c2)[C@H](O)[C@@H](O)[C@@H]1O [Cpd. A] | reduced the plasma insulin levels significantly | −3.5 | −4.5 | −1.5 | −0.3 | 3.1 | 37 |  | 
2 | CCc1ccc(CCOc2ccc(CC3SC(=O)NC3=O)cc2)nc1 (centres unmarked) [Pioglitazone, pioglitazone] |  | 6.2 | 15.4 | 1.1 | 3.6 |  | 48 | 6.8 | 
3 | CN(C)C(=N)N=C(N)N [metformin] |  |  |  |  |  |  |  |  | 1.0-1.5%

Reference: patent US20140088027A1, “PHARMACEUTICAL COMPOSITION COMPRISING AN SGLT2 INHIBITOR AND A PPAR- GAMMA AGONIST AND USES THEREOF” (BOEHRINGER INGELHEIM INTERNATIONAL GMBH, priority 2010, published 2014)
